Experimental data: patent US12630600B2 (MEDIMMUNE LIMITED, priority 2022, dated 2026)
Where two headings read alike, the source gives them in different places. Starred links: 1 amine or outer side, 2 acyl side, 3 side chain; linkers in the order of their positions; H or OH if unused. Non-standard residues stand in square brackets, D forms with d. Residues, ends and D or L forms follow the SMILES beside them. Groups on a side chain read outwards from the residue. *: point of attachment. C20 diacid = O=C(O)CCCCCCCCCCCCCCCCCCC(=O)*; γGlu = O=C(O)[C@H](CCC(=O)[*:2])N[*:1]; αMeF = C[C@](N)(Cc1ccccc1)C(=O)O; AEEA = NCCOCCOCC(=O)O; Aib = CC(C)(N)C(=O)O

Legend:
[1] = dog, in vivo, iv, 10 nmol/kg
Description: (§1) Selected test peptides (n=8) were profiled for pharmacokinetic (PK) properties in the mouse after single intravenous (i.v.) or subcutaneous (s.c.) dose. A subset (n=4) meeting the acceptance criteria was subsequently profiled in the dog (single i.v. dose) and non-human primate (single i.v. and s.c. dose). […] Low-binding plasticware containers were used during preparation and sample handling to avoid non-specific binding.
Blood of each sample was transferred into plastic micro centrifuge tubes containing EDTA-K2, inverted several times for proper mixing of contents and then placed on wet ice.
(§2) Samples analysis: Samples were analyzed by LC-MS/MS. Calibration standards were injected at the beginning and end of each batch and the determined concentration for each prepared standard was used to construct a calibration curve. Plasma and dose aliquot sample concentrations were determined from the plasma calibration curve.
Data analysis: Plasma concentration data was analyzed by non-compartmental analysis (NCA) using Phoenix Winnonlin v. 8.3.3.33. Linear trapezoidal rule was used for increasing values and log trapezoidal rule was used for decreasing values, applying uniform weighting for lambda_z calculations. Subcutaneous bioavailability was calculated as the ratio AUC(s.c.)0-inf/AUC(i.v.)0-inf. Reported values (Table 18) represent the mean of the individual estimates.

neprilysin = molecular target: T1, neprilysin (Homo sapiens, UniProt P08473); assay: Proteolytic resistance to neprilysin; type: in vitro ADME; details: pH 8.3
T1 construct: purchased R&D Systems 1182-ZNC-010
T1 sequence (P08473 whole entry): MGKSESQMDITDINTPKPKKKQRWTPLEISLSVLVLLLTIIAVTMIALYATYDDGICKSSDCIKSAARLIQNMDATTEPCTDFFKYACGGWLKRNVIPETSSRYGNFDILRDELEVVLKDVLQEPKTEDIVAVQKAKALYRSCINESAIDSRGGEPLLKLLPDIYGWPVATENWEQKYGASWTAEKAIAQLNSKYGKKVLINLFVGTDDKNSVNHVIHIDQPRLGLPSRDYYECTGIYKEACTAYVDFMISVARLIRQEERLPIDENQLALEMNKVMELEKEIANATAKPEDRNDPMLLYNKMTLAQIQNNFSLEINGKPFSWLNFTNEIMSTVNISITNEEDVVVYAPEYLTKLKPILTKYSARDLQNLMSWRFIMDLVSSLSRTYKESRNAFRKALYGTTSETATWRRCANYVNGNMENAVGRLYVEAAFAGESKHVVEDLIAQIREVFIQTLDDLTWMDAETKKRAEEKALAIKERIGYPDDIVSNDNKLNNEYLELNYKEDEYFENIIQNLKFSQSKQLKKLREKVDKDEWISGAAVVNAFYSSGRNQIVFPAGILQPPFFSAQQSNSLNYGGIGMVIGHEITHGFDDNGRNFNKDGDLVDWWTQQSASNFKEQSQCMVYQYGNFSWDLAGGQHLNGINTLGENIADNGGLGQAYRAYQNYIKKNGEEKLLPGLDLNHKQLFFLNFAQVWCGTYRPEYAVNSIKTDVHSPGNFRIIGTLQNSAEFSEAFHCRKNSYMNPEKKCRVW
How it was run: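 Peptide (~250 µM stock) was mixed 1:1 with recombinant neprilysin (100 µg/mL stock) in Tris/NaCl/NaHCO3 buffer, pH 8.3, at 37 °C. Aliquots taken at 0, 30 min, 1, 2, 4 and 24 h were TFA-quenched. Intact peptide remaining was estimated by RP-HPLC peak area at 210 nm.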

[2] = cynomolgus monkey, in vivo, 20 nmol/kg
Description: as §1
Non-human primate: PK was studied in non-naïve male cynomolgus monkeys. After dosing, PK samples were collected from the femoral vein. Blood of each sample was transferred into plastic micro centrifuge tubes containing EDTA-K2, inverted several times for proper mixing of contents and then placed on wet ice.
as §2
Data analysis: Plasma concentration data was analyzed by non-compartmental analysis (NCA) using Phoenix Winnonlin v. 8.3.3.33. […] Subcutaneous bioavailability was calculated as the ratio AUC(s.c.)0-inf/AUC(i.v.)0-inf. […]

CC[C@H](C)[C@H](NC(=O)C(C)(C)NC(=O)[C@H](CCC(N)=O)NC(=O)[C@@H](NC(=O)[C@](C)(Cc1ccccc1)NC(=O)[C@H](CC(=O)O)NC(=O)[C@H](CCCCNC(=O)COCCOCCNC(=O)COCCOCCNC(=O)CC[C@H](NC(=O)CC[C@H](NC(=O)CCCCCCCCCCCCCCCCCCC(=O)O)C(=O)O)C(=O)O)NC(=O)[C@H](C)NC(=O)[C@H](C)NC(=O)[C@H](CCCNC(=N)N)NC(=O)[C@H](CO)NC(=O)[C@H](CC(=O)O)NC(=O)[C@H](CC(C)C)NC(=O)[C@](C)(Cc1ccccc1)NC(=O)[C@H](CCCCN)NC(=O)[C@H](CO)NC(=O)[C@@H](NC(=O)[C@H](CC(=O)O)NC(=O)[C@H](CO)NC(=O)[C@@H](NC(=O)[C@](C)(Cc1ccccc1)NC(=O)[C@H](CO)NC(=O)CNC(=O)[C@H](Cc1c[nH]cn1)NC(=O)C(C)(C)NC(=O)[C@@H](N)Cc1c[nH]cn1)[C@@H](C)O)C(C)C)C(C)C)C(=O)N[C@@H](C)C(=O)N[C@@H](CC(N)=O)C(=O)N[C@H](C(N)=O)[C@@H](C)O [Peptide 229, H-Aib-H-G-S-αMePhe-T-S-D-V-S-K-αMePhe-L-D-S-R-A-A-K(ε-(O2Oc)-(O2Oc)-γE-γE-C20diacid)20-D-αMePhe-V-Q-Aib-I-A-N-T-amide] (H-H[Aib]HGS[αMeF]TSDVSK[αMeF]LDSRAAK([AEEA-AEEA-γGlu-γGlu-C20 diacid])D[αMeF]VQ[Aib]IANT-NH2)
half-life [1]: 86 h
% intact peptide over time, Neprilysin (neprilysin): 100%
bioavailability [2]: 75%
half-life ([2]; iv): 130 h
